Experimental data from ChEMBL document CHEMBL1158409, “Discovery of 3,5-disubstituted-1H-pyrrolo[2,3-b]pyridines as potent inhibitors of the insulin-like growth factor-1 receptor (IGF-1R) tyrosine kinase” (Bioorg Med Chem Lett, 2009).
pIC50: −log10 of the molar value.

Columns and labels:
[1] = target: T1, Insulin-like growth factor 1 receptor (Homo sapiens, UniProt P08069); assay: Inhibition of GST-tagged human IGF1R expressed in Sf9-baculovirus system
[2] = target: T1, Insulin-like growth factor 1 receptor; assay: Inhibition of IGF1-induced human IGF1R phosphorylation expressed in mouse NIH-3T3 cells treated 2 hrs prior to IGF1 challenge by DELFIA
[3] = target: T2, Inhibitor of nuclear factor kappa-B kinase subunit alpha (Homo sapiens, UniProt O15111); assay: Inhibition of IKK1
T2 sequence (O15111 whole entry): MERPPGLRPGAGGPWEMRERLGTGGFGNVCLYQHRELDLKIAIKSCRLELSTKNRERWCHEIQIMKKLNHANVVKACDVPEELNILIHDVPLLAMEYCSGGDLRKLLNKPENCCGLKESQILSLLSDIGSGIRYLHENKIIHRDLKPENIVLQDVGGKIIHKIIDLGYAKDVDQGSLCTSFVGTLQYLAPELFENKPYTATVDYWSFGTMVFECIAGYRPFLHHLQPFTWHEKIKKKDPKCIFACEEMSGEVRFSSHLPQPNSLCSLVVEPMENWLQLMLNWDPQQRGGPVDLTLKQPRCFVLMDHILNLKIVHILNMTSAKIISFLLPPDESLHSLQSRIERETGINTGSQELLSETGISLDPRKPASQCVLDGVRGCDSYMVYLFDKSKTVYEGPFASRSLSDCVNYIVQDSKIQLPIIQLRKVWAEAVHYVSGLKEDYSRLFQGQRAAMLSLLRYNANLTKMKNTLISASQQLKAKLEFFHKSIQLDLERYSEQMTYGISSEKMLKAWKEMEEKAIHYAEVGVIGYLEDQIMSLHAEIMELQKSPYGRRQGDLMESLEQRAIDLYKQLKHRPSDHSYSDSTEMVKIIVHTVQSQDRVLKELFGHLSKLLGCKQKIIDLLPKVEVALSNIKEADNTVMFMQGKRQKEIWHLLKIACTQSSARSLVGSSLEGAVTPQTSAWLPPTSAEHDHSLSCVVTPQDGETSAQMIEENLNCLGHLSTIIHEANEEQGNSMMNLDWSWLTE

[4] = target: T3, Inhibitor of nuclear factor kappa-B kinase subunit beta (Homo sapiens, UniProt O14920); assay: Inhibition of IKK2
T3 sequence (O14920 whole entry): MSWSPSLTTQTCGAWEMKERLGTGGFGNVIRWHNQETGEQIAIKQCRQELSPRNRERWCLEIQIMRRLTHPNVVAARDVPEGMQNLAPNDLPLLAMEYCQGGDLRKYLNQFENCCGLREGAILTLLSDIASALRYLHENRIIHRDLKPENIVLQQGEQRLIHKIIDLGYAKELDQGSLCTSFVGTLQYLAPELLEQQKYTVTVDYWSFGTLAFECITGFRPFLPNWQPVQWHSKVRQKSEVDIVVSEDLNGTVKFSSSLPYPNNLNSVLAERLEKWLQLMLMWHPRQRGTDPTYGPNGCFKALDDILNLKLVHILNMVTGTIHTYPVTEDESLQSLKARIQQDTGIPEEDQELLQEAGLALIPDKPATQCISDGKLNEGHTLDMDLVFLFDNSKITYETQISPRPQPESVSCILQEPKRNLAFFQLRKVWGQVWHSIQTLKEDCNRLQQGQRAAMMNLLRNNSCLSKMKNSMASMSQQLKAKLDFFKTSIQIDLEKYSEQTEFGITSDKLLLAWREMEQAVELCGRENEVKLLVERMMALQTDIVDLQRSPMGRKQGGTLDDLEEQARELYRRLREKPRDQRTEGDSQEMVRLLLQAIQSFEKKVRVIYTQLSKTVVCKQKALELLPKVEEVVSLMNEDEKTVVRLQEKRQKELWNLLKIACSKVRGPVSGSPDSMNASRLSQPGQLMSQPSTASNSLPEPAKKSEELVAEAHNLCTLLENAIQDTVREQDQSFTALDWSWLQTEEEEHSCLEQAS

[5] = target: Mitogen-activated protein kinase 8 (Homo sapiens, UniProt P45983); assay: Inhibition of JNK1
[6] = target: Mitogen-activated protein kinase 10 (Homo sapiens, UniProt P53779); assay: Inhibition of JNK3
[7] = target: Tyrosine-protein kinase Lyn (Homo sapiens, UniProt P07948); assay: Inhibition of LYN
[8] = target: Tyrosine-protein kinase SYK (Homo sapiens, UniProt P43405); assay: Inhibition of SYK

T1 sequence (P08069 31-736 limits assumed): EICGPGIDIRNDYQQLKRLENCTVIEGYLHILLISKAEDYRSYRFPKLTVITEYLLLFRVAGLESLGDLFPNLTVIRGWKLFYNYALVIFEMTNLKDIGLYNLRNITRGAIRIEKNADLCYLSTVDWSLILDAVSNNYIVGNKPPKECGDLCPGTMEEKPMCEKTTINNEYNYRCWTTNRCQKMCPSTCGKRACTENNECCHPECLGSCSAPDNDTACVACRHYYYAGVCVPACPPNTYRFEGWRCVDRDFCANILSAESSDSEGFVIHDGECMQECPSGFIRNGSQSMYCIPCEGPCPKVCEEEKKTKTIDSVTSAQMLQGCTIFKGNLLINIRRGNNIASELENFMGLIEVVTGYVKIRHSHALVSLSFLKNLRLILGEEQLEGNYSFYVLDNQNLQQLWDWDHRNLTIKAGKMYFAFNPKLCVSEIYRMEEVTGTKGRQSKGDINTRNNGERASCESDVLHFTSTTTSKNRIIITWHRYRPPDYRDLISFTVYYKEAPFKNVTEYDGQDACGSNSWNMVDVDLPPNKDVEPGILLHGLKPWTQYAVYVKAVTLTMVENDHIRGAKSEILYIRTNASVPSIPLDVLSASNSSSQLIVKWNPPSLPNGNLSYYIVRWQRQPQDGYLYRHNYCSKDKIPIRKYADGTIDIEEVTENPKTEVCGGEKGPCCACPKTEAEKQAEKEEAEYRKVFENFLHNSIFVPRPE
T1 sequence (P08069 741-1367 limits assumed): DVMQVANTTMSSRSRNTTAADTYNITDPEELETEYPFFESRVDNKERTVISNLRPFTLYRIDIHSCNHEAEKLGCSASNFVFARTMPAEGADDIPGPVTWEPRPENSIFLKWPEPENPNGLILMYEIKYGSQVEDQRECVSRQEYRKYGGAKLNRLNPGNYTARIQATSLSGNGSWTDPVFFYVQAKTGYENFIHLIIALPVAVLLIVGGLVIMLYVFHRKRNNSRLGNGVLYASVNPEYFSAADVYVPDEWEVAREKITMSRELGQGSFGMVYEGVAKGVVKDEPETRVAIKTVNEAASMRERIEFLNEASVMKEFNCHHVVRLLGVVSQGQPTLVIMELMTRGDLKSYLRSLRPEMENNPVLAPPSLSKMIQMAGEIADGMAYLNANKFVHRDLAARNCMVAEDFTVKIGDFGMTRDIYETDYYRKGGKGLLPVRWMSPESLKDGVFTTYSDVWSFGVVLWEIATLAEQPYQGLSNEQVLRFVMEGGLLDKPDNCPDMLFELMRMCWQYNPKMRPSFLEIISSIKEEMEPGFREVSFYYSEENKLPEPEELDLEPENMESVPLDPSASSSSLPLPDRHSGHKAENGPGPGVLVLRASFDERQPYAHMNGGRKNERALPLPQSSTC
Chain of Mitogen-activated protein kinase 8 (P45983 whole entry): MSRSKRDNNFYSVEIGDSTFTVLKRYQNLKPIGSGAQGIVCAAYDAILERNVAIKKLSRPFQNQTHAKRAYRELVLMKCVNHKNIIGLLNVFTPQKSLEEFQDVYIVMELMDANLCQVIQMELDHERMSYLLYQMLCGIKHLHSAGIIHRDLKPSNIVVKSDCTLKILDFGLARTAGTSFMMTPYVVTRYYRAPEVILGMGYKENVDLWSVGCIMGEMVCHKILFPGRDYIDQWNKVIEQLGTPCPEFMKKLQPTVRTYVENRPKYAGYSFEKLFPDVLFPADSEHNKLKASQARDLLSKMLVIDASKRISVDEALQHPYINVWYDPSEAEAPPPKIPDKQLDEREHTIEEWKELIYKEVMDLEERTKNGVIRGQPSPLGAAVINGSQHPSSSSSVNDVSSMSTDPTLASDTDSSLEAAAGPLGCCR
Chain of Mitogen-activated protein kinase 10 (P53779 whole entry): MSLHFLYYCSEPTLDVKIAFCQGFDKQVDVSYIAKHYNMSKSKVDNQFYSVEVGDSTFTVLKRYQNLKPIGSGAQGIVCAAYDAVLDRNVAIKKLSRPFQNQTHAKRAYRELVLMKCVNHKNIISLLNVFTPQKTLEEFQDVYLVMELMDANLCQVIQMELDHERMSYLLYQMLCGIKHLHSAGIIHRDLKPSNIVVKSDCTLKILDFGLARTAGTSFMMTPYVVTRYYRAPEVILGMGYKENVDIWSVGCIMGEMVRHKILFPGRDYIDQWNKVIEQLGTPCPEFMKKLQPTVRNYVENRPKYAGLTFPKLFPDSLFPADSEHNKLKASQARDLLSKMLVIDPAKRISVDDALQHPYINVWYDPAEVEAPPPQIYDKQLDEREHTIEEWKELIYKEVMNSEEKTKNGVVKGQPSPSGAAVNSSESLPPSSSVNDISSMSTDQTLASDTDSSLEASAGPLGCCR
Chain of Tyrosine-protein kinase Lyn (P07948 whole entry): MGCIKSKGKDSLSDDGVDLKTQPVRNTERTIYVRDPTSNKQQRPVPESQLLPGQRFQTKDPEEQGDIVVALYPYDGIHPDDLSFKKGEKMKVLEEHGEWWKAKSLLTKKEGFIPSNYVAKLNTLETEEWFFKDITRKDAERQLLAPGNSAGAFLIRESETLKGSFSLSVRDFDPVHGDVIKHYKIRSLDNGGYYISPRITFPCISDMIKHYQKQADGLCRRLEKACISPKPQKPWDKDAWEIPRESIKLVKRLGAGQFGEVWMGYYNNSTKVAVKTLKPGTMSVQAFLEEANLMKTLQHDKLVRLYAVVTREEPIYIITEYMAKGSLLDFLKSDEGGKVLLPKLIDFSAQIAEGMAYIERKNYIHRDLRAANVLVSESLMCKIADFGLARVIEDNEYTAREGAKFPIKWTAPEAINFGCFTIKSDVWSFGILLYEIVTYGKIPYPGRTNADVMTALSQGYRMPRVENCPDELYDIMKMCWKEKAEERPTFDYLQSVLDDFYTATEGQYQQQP

| Structure (SMILES) | pIC50 [1] | pIC50 [2] | further results |
| --- | --- | --- | --- |
| CN(C)C(=O)c1cccc(-c2cnc3[nH]cc(-c4cccc(NC(=O)Nc5ccc(Oc6ccccc6)cc5)c4)c3c2)c1 | 5.69 | 5.51 | – |
| CN(C)S(=O)(=O)c1ccc(-c2cnc3[nH]cc(-c4cccc(NC(=O)Nc5ccccc5Oc5ccccc5)c4)c3c2)cc1 | – | 4.68 | – |
| CN1CCN(C(=O)c2ccc(-c3cnc4[nH]cc(-c5cccc(NC(=O)Nc6ccc(C(F)(F)F)cc6F)c5)c4c3)cc2)CC1 | 6.54 | – | – |
| CN(C)C(=O)c1ccc(-c2cnc3[nH]cc(-c4cccc(NC(=O)Nc5ccccc5Oc5ccccc5)c4)c3c2)cc1 | 7.51 | 6.89 | – |
| CN(C)CCNC(=O)c1ccc(-c2cnc3[nH]cc(-c4cccc(NC(=O)Nc5ccc(C(F)(F)F)cc5F)c4)c3c2)cc1 | 7.44 | – | – |
| CN(C)CCNC(=O)c1cccc(-c2cnc3[nH]cc(-c4cccc(NC(=O)Nc5ccc(C(F)(F)F)cc5F)c4)c3c2)c1 | 7.17 | – | – |
| CN(C)CCNC(=O)c1cccc(-c2cnc3[nH]cc(-c4cccc(NC(=O)Nc5ccccc5Oc5ccccc5)c4)c3c2)c1 | 8.40 | – | – |
| CN(C)C(=O)c1cccc(-c2cnc3[nH]cc(-c4cccc(NC(=O)Nc5ccccc5OCc5ccccc5)c4)c3c2)c1 | 6.88 | 6.29 | – |
| NCc1ccc(-c2cnc3[nH]cc(-c4cccc(NC(=O)Nc5ccc(C(F)(F)F)cc5F)c4)c3c2)cc1 | 7.30 | – | pIC50 [3]: 7.49; pIC50 [4]: 7.10; pIC50 [5]: 7.10; pIC50 [6]: 6.60; pIC50 [7]: 7.40; pIC50 [8]: 7.10 |
| Nc1ccc(-c2cnc3[nH]cc(-c4cccc(NC(=O)Nc5ccc(C(F)(F)F)cc5F)c4)c3c2)cc1 | 6.70 | – | – |
| Nc1cccc(-c2cnc3[nH]cc(-c4cccc(NC(=O)Nc5ccc(C(F)(F)F)cc5F)c4)c3c2)c1 | 6.62 | – | – |
| COc1ccc(-c2cnc3[nH]cc(-c4cccc(NC(=O)Nc5ccc(C(F)(F)F)cc5F)c4)c3c2)cc1OC | 5.66 | – | – |
| O=C(O)CCc1ccc(-c2cnc3[nH]cc(-c4cccc(NC(=O)Nc5ccccc5Oc5ccccc5)c4)c3c2)cc1 | 6.68 | 5.44 | – |
| O=C(Nc1cccc(-c2c[nH]c3ncc(-c4cccc(F)c4)cc23)c1)Nc1ccc(C(F)(F)F)cc1F | 6.22 | – | – |
| CN(C)CCNC(=O)c1ccc(-c2cnc3[nH]cc(-c4cccc(NC(=O)Nc5ccccc5Oc5ccccc5)c4)c3c2)cc1 | 8.40 | 6.38 | – |
| CN1CCN(C(=O)c2cccc(-c3cnc4[nH]cc(-c5cccc(NC(=O)Nc6ccc(C(F)(F)F)cc6F)c5)c4c3)c2)CC1 | 6.47 | – | – |
| CN(C)S(=O)(=O)c1cccc(-c2cnc3[nH]cc(-c4cccc(NC(=O)Nc5ccccc5Oc5ccccc5)c4)c3c2)c1 | 7.24 | 5.95 | – |

More lines, main results first:

| pIC50 [1] | pIC50 [2] | Structure (SMILES) | further results |
| --- | --- | --- | --- |
| 6.13 | – | O=C(Nc1ccccc1)Nc1cccc(-c2c[nH]c3ncc(-c4ccccc4)cc23)c1 | – |
| 5.90 | – | O=C(Nc1cccc(-c2c[nH]c3ncc(-c4ccccc4)cc23)c1)Nc1ccc(C(F)(F)F)cc1F | – |
| 7.70 | – | NCc1ccc(-c2cnc3[nH]cc(-c4cccc(NC(=O)Nc5cccc(Cl)c5)c4)c3c2)cc1 | – |
| 5.99 | – | O=C(Nc1cccc(Cl)c1)Nc1cccc(-c2c[nH]c3ncc(-c4ccccc4)cc23)c1 | – |
| 7.68 | 7.17 | CN(C)C(=O)c1cccc(-c2cnc3[nH]cc(-c4cccc(NC(=O)Nc5ccccc5Oc5ccccc5)c4)c3c2)c1 | – |
| 6.60 | 5.90 | O=C(Nc1cccc(-c2c[nH]c3ncc(-c4ccoc4)cc23)c1)Nc1ccccc1Oc1ccccc1 | – |
| 6.90 | 6.16 | O=C(Nc1cccc(-c2c[nH]c3ncc(-c4ccccc4)cc23)c1)Nc1ccccc1Oc1ccccc1 | – |
| 6.74 | 5.98 | O=C(Nc1cccc(-c2c[nH]c3ncc(-c4cccc(C(=O)O)c4)cc23)c1)Nc1ccccc1Oc1ccccc1 | – |
| 6.67 | 6.02 | CN(C)C(=O)c1cccc(-c2cnc3[nH]cc(-c4cccc(NC(=O)Nc5cccc(Oc6ccccc6)c5)c4)c3c2)c1 | – |
| 7.41 | 6.39 | CN(C)C(=O)c1cccc(-c2cnc3[nH]cc(-c4cccc(NC(=O)Nc5ccccc5Nc5ccccc5)c4)c3c2)c1 | – |
